Test results from patent US20190106460A1, “BINDING INHIBITORS OF THE BETA. TRANSDUCIN REPEAT-CONTAINING PROTEIN” (priority 2011, published 2019).
Non-standard residues stand in square brackets, D forms with d. Residues, ends and D or L forms follow the SMILES beside them. Groups on a side chain read outwards from the residue. *: point of attachment. X3 = CC(C)CCC[C@@H](C)[C@H]1CCC2C3CC=C4C[C@@H](OC(=O)*)CC[C@]4(C)C3CC[C@@]21C; Benzenesulfonyl(4-OMe) = COc1ccc(S(=O)(=O)*)cc1; Phe(3-F) = N[C@@H](Cc1cccc(F)c1)C(=O)O; Ahx = NCCCCCC(=O)O

Test system: β-catenin in MCF7 cells
Assay: β-Catenin in cell western
Type: cell-based
Procedure: β-Catenin in Cell Western
Plating of the MCF7 cells onto 96 well plates—this step is carried out 1 day before the treatment of the cells to allow the cells to adhere well to the tissue culture plastic. MCF7 cells to be used for seeding should be less than 100% confluent in a 10 cm dish. Add 3 ml of RT trypsin/EDTA to the cells. Incubate at 37° C./5% CO2 for a few minutes until the cells easily come away from the plastic by gentle swirling. Add 7 ml of media to the cells. Wash the bottom of the plate gently with the 10 ml to ensure all cells are captured and dispense into a 15 ml falcon. Add 1001l of the cells to 1001l of Trypan blue and add to haemocytometer to count the number of cells present. Make up approx 10 ml of cells in media at 2×10^4 cells/1001l (well) with fresh media. Add this correct seeding density to a 10 cm dish. Dispense 1001l of cells/well into a 96 well plate without using the outside wells. Incubate at 37° C./5% CO2 overnight
Treatment of MCF7 cells with compound of interest (COI) and controls—Put OptiMEM into 37° C. water bath to warm. Add 4 ul of 50 mM compound X for testing to eppendorf—this is tube 1. Add 2 al DMSO to 6 tubes marked tube 2-7. Take 21 al of 50 mM (COI) and add to 2 al of DMSO in tube 2 and pipette up and down to mix. Take 21 al from tube 2 and add to 2 μl DMSO in next tube and mix. […]

COc1ccc(S(=O)(=O)N[C@H](CC(=O)O)C(=O)N[C@@H](CCC(=O)O)C(=O)NCC(=O)N[C@@H](Cc2cccc(F)c2)C(=O)N[C@@H](Cc2c[nH]c3ccccc23)C(=O)N[C@@H](CCC(=O)O)C(=O)NCCCCCC(=O)N[C@@H](CCCCNC(=O)CCCCCNC(=O)O[C@H]2CC[C@@]3(C)C(=CCC4C3CC[C@@]3(C)C4CC[C@@H]3[C@H](C)CCCC(C)C)C2)C(N)=O)cc1 (stereo partly shown) [UBP036, 4-(MeO)PhSO2-dEGF(3F)WE-Ahx-K(Ahx-Chol)-NH2] ({Benzenesulfonyl(4-OMe)}-[dD]EG[Phe(3-F)]WE[Ahx]K([Ahx-X3])-NH2)
accumulation of β-catenin, in cell western: accumulation of β-catenin
